# Measured values as given in patent US20260014125A1, “BICYCLIC-TYPE MAT2A INHIBITOR AND USE THEREOF” (HAIHE BIOPHARMA CO., LTD., priority 2022, published 2026).
# System: KP-4 cells
# Test: Human pancreatic cancer KP-4 cell activity inhibition test (CellTiter-Glo)
# Type: cell-based
# Conditions: 5 days
# Description: Experimental principle: after co-incubating the MAT2A inhibitor to be tested with KP-4 cells for a period of time, a cell viability measurement method based on ATP content is used to characterize the effect of the tested compound on cell viability.
# Experimental material: KP-4 cells (JCRB #JCRB0182); IMDM (Gibco 912440061); fetal bovine serum (EXCELL #FND500); penicillin-streptomycin (Gibco #15140-122); 0.25% Typsin-EDTA (Gibco #252(101-072); DMSO (Sigma #D2650); 96 well plate (Corning #3610); CellTiter-Glo (Promega #G7571)
# 1. KP-4 cells were cultured in IMDM culture medium containing 10% e fetal bovine serum and 1% penicillin-streptomycin at 37° C. and 5% CO2 in a cell culture incubator. Only cells in logarithmic growth phase were used for subsequent experiments.
# 2. The cells in logarithmic growth phase were inoculated into a 96 well plate, with a seeding quantity of 500 cells per well, and incubated overnight in a cell culture incubator at 37′C and 5% CO2.
# 3. The compound was dissolved with DMSO, diluted with culture medium to 10 different concentrations (approximately […]), 3333.3, 1111.1, 370, 123, 41.2, 13.7, 4.6, 1.5, and 0.5 nM) before adding it to the cell plate, and cultured at 37° C. and 5% CO2 for 5 days.
# 4. CellTiter-Glo reagent was added, and an enzyme-linked immunosorbent assay reader was used to detect cell viability.
# Data analysis: the inhibition rate (%) of the compound was calculated and fitted to obtain the IC50 of the tested compound. Calculation method for compound inhibition rate: Compound inhibition rate (%)=(Signal_max−Signal_sample)/(Signal_max−Signal_min)×100, wherein Signal_sample was the sample well reading, indicating the cell activity of the compound inhibition well; Signal_min was the positive control well reading, indicating the background activity without cells; and Signal_max was the negative control well reading, indicating the cell activity of the well without compound inhibition.
row,Structure (SMILES),IC50 [nM]
1,CCOc1c(-c2ccc(OC(F)F)cc2)c(=O)n(-c2ccc3nn(CC)cc3c2)c2[nH]ncc12 [Compound 19],7.4

# Same assay, conditions: Homo sapiens, 120 h, 5 days
row,IC50 [nM],Structure (SMILES)
1,9,Cc1ccc(-c2c(OCC(F)(F)F)c3cn[nH]c3n(-c3ccc4nn(C)cc4c3)c2=O)cn1 [Compound 52]
2,3.7,Cn1cc2cc(-n3c(=O)c(-c4ccc(Cl)cc4)c(NCC4CC4)c4cn[nH]c43)ccc2n1 [Compound 123]
3,89.2,CCOc1c(-c2ccc(OC(F)F)cc2)c(=O)n(-c2ccn3nccc3c2)c2[nH]ncc12 [Compound 23]
4,6.6,CCOc1c(-c2ccc(C3CC3)nc2)c(=O)n(-c2ccc3nn(C)cc3c2)c2[nH]ncc12 [Compound 47]
5,19.2,CCOc1c(-c2ccc(Br)cc2)c(=O)n(-c2ccc3nn(C)cc3c2)c2[nH]ncc12 [Compound 54]
6,1.2,CCOc1c(-c2ccc(Cl)cc2)c(=O)n(-c2ccc3nnn(C)c3c2)c2[nH]ncc12 [Compound 128]
7,146,CCOc1c(-c2ccc(Cl)cc2)c(=O)n(C2=NC3C(C=C2)N=NN3C)c2[nH]ncc12 (centres unmarked) [Compound 141]
8,234,CCNc1c(-c2ccc(C(F)(F)F)nc2)c(=O)n(-c2ccc3nn(C)cc3c2)c2[nH]ncc12 [Compound 106]
9,18.9,CCOc1c(-c2ccc(OC(F)F)cc2)c(=O)n(-c2ccc3nn(CCOC)cc3c2)c2[nH]ncc12 [Compound 21]
10,256,CCOc1c(-c2ccc(OC(F)F)cc2)c(=O)n(-c2ccc3nccn3c2)c2[nH]ncc12 [Compound 24]
11,274,CCOc1c(-c2ccc(OC(F)F)cc2)c(=O)n(-c2ccc3ncnn3c2)c2[nH]ncc12 [Compound 25]

# Molecular target: MAT2A (Homo sapiens (Human), UniProt P31153)
# Sequence (P31153 whole entry): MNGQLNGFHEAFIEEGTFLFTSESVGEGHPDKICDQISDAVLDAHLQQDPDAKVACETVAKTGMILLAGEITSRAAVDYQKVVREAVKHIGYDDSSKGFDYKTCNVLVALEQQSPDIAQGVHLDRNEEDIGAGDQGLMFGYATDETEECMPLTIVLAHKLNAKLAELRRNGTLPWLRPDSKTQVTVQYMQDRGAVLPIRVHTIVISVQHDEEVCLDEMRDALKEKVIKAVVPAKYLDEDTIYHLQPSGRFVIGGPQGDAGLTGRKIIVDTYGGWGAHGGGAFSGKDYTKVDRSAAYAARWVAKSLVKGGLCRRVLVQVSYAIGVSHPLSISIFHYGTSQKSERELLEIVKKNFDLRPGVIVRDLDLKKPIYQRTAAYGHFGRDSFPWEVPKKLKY
# Test: Biochemical test: inhibition of MAT2A enzyme activity (phosphate detection, OD620)
# Conditions: MAT2A his-tag; 150 minutes enzymatic reaction
# Source text: Experimental principle: MAT2A can catalyze the conversion of L-methionine and ATP into SAM, inorganic phosphate, and inorganic diphosphate. By adding a chromogenic reagent to the enzymatic reaction system, the content of inorganic phosphates in a sample can be quantitatively detected, thereby characterizing the enzymatic activity of MAT2A.
# Experimental material: Tris (Life Science #0497); BSA (Sigma #); MAT2A his-tag (BPS #71401-1); 384 well plate (Corning #3765); L-methionine (Admas #1100469); ATP (Sigma #A7699); MgCl2 (Sigma #M8266); KCl (Sigma #7447-40-7); Brij35 (Sigma #B4184); EDTA (Sigma #E1644)
# 1. 1×Assaybuffer (buffer composition: Tris, KCl, MgCl2, BSA, Brij35, and EDTA; the solvent was ultrapure water) was prepared. MAT2A his-tag enzyme solution (containing 1.3 μL of MAT2A enzyme and 998.7 μL of 1×Assaybuffer per 1000 μL) and substrate mixed solution (containing 5 μL of ATP, 1.3 μL of L-methionine, and 993.7 μL of 1×Assaybuffer per 1000 μL) were prepared using 1×AssayBuffer.
# 2. Preparation of compound concentration gradient: The test compound was tested with a starting concentration of 10 μM, and 10 equimolar concentrations were set according to a 3-fold dilution. Specifically, firstly, the compound was diluted into 10 different concentrations of series solutions in a 384 well plate (with final detection concentrations of 10, 3.33, 1.11, 0.37, 0.123, 0.041, 0.0137, 0.0046, 0.0015, and 0.0005 μM), and then 250 nL of the above series solutions was transferred to the 384 well reaction plate using an ultrasonic pipetting system Echo550 for later use. 250 nL of 100% DMSO was added into a negative control well and a positive control well, respectively. Double well test.
# 3. 15 μL of MAT2A his-tag enzyme solution was added into both the compound well and the positive control well; and 15 μL of 1×Assaybuffer was added into the negative control well.
# 4. The 384 well plate reaction plate was centrifuged at 1000 rpm for 60 seconds, shaken, mixed well, and incubated for 15 minutes. 10 μL of substrate mixed solution was added into each experimental well of the 384 well reaction plate to initiate the reaction.
# 5. The 384 well reaction plate was centrifuged at 1000 rpm for 60 seconds, shaken, mixed well, and incubated for 150 minutes.
# 6. 50 μL of enzyme reaction termination solution Biomol was added into all experimental wells of the 384 well reaction plate to terminate the reaction, centrifuged at 1000 rpm for 60 seconds, and incubated for 15 minutes. OD620 was read and data was processed.
# Data analysis: the inhibition rate (%) of the compound was calculated and fitted to obtain the IC50 of the tested compound. Calculation method for compound inhibition rate: Compound inhibition rate (%)=(OD620_max−OD620_stample)/(OD620_max−OD620_min)×100, wherein OD620_stample was the absorbance value of the sample well; OD620 min was the absorbance value of the positive control well, indicating the reading of the wells without enzyme activity; and OD620_max was the absorbance value of the negative control well, indicating the reading of the well without compound inhibition.
row,IC50 [nM],Structure (SMILES)
1,17.6,Cc1ccc(-c2c(OCC(F)(F)F)c3cn[nH]c3n(-c3ccc4nn(C)cc4c3)c2=O)cn1 [Compound 52]
2,22.9,CCOc1c(-c2cccc(OC)c2)c(=O)n(-c2ccc3nn(C)cc3c2)c2[nH]ncc12 [Compound 18]
3,28.3,CCOc1c(-c2ccc(C(F)(F)F)nc2)c(=O)n(-c2ccc3nn(C)cc3n2)c2[nH]ncc12 [Compound 87]
4,11.7,Cn1cc2cc(-n3c(=O)c(-c4ccc(Cl)cc4)c(NCC4CC4)c4cn[nH]c43)ccc2n1 [Compound 123]
5,1120,CCOc1c(-c2ccc(Cl)cc2)c(=O)n(-c2ccc3nn(C)cc3n2)c2c1cnn2C [Compound 121]
6,14.8,CCOc1c(-c2ccc(C3CC3)nc2)c(=O)n(-c2ccc3nn(C)cc3c2)c2[nH]ncc12 [Compound 47]
7,10.3,[2H]C([2H])([2H])C([2H])([2H])Oc1c(-c2ccc(Cl)cc2)c(=O)n(-c2ccc3nn(C)cc3c2)c2[nH]ncc12 [Compound 142]
8,14.2,COCCOc1c(-c2ccc(Cl)cc2)c(=O)n(-c2ccc3nn(C)cc3c2)c2[nH]ncc12 [Compound 60]
9,18.5,CCN(C)c1c(-c2ccc(Cl)cc2)c(=O)n(-c2ccc3nn(C)cc3c2)c2[nH]ncc12 [Compound 64]
10,12.9,CCOc1c(-c2ccc(Br)cc2)c(=O)n(-c2ccc3nn(C)cc3c2)c2[nH]ncc12 [Compound 54]
11,27.7,CCOc1c(-c2ccc(Cl)cc2)c(=O)n(-c2ccc3nn(C)cc3c2)c2nn(CCO)cc12 [Compound 122]
12,8.6,CCOc1c(-c2ccc(Cl)cc2)c(=O)n(-c2ccc3nnn(C)c3c2)c2[nH]ncc12 [Compound 128]
13,15,Cn1cc2cc(-n3c(=O)c(-c4ccc(OC(F)F)cc4)c(OCC4CC4)c4cn[nH]c43)ccc2n1 [Compound 39]
14,16.7,CCOc1c(-c2ccc(Cl)cc2)c(=O)n(C2=NC3C(C=C2)N=NN3C)c2[nH]ncc12 (centres unmarked) [Compound 141]
15,28.8,CCNc1c(-c2ccc(C(F)(F)F)nc2)c(=O)n(-c2ccc3nn(C)cc3c2)c2[nH]ncc12 [Compound 106]
16,17.4,CCOc1c(-c2ccc(C)nc2)c(=O)n(-c2ccc3nn(CC)cc3c2)c2[nH]ncc12 [Compound 101]
17,36.2,CCOc1c(-c2ccc(Cl)cc2)c(=O)n(-c2ccc3c(cnn3CCN(C)C)c2)c2[nH]ncc12 [Compound 131]
18,> 10000,CCNc1c(-c2ccc(Cl)cc2)c(=O)n(-c2ccc3c(c2)ncn3C)c2[nH]ncc12 [Compound 16]
19,11.2,CCSc1c(-c2ccc(Cl)cc2)c(=O)n(-c2ccc3nn(C)cc3c2)c2[nH]ncc12 [Compound 130]
20,16.3,CCOc1c(-c2ccc(C)nc2)c(=O)n(-c2ccc3nn(C)cc3c2)c2[nH]ncc12 [Compound 48]
21,16,Cc1ccc(-c2c(OCC(F)(F)F)c3cn[nH]c3n(-c3ccc4nn(C)cc4n3)c2=O)cn1 [Compound 89]
22,18.3,CCCc1c(-c2ccc(Cl)cc2)c(=O)n(-c2ccc3nn(C)cc3c2)c2[nH]ncc12 [Compound 112]

row,IC50 [nM],Structure (SMILES)
1,17.8,CCOc1c(-c2ccc(Cl)cc2)c(=O)n(-c2ccc3nn(C)cc3c2)c2[nH]cnc12 [Compound 67]
2,16,CCOc1c(-c2ccc(C#N)cc2)c(=O)n(-c2ccc3nn(C)cc3c2)c2[nH]ncc12 [Compound 65]
3,20.7,Cn1cc2cc(-n3c(=O)c(-c4ccc(Cl)cc4)c(OCCO)c4cn[nH]c43)ccc2n1 [Compound 59]
4,14.2,CCOc1c(C2CCCCC2)c(=O)n(-c2ccc3nn(C)cc3c2)c2[nH]ncc12 [Compound 61]
5,27.4,CCOc1c(-c2ccc(C)cc2)c(=O)n(-c2ccc3nn(C)cc3n2)c2[nH]ncc12 [Compound 133]
6,14.6,Cn1cnc2ccc(-n3c(=O)c(-c4ccc(OC(F)F)cc4)c(OCC4CC4)c4cn[nH]c43)cc21 [Compound 32]
7,24.4,CCOc1c(-c2ccc(Cl)cc2)c(=O)n(-c2ccc3nn(C)cc3c2)c2cn(C)nc12 [Compound 56]
8,45.3,CCOc1c(-c2ccc(=O)[nH]c2)c(=O)n(-c2ccc3nn(C)cc3c2)c2[nH]ncc12 [Compound 125]
9,708,CCNc1c(-c2ccc(OC)cc2)c(=O)n(-c2ccc(C#N)cc2)c2[nH]ncc12 [Compound 6]
10,20.3,CCOc1c(-c2ccc(C)nc2)c(=O)n(-c2ccc3nn(C)cc3n2)c2[nH]ncc12 [Compound 86]
11,22.1,CCOc1c(-c2ccc(Cl)cc2)c(=O)n(-c2ccc3ncn(CC)c3c2)c2[nH]ncc12 [Compound 34]
12,67.3,CCOc1c(-c2ccc(Cl)cc2)c(=O)n(-c2ccn3nccc3c2)c2[nH]ncc12 [Compound 114]
13,62.4,CCOc1c(-c2ccc(Cl)cc2)c(=O)n(-c2ccc3nn(C)cc3c2)c2cnn(C)c12 [Compound 100]
14,17.9,CCOc1c(-c2ccc(Cl)cc2)c(=O)n(-c2ccc3nn(C)nc3c2)c2nn(C)cc12 [Compound 136]
15,50.7,CCOc1c(-c2ccc(Cl)cc2)c(=O)n(-c2ccc3nn(C)nc3n2)c2nn(C)cc12 [Compound 138]
16,13,CCOc1c(-c2ccc(Cl)cc2)c(=O)n(-c2ccc3nnn(C)c3c2)c2nn(C)cc12 [Compound 140]
17,60.8,CCOc1c(-c2ccc(Cl)cc2)c(=O)n(-c2ccc3ncn(C4CNC4)c3c2)c2[nH]ncc12 [Compound 35]
18,335,CCOc1c(-c2ccc(Cl)cc2)c(=O)n(-c2ccn3nc(C)cc3n2)c2[nH]ncc12 [Compound 116]
19,376,CCOc1c(-c2ccc(Cl)cc2)c(=O)n(-c2ccc3c(cnn3CCN(C)C)n2)c2[nH]ncc12 [Compound 139]
20,120,CCOc1c(-c2ccc(OC(F)F)cc2)c(=O)n(-c2ccc3nn(C)cc3c2)c2c1cnn2C [Compound 31]
21,55.8,CCOc1c(-c2ccc(OC(F)F)cc2)c(=O)n(-c2cnc3nn(C)cc3c2)c2[nH]ncc12 [Compound 40]

row,Structure (SMILES),IC50 [nM]
1,CCOc1c(-c2ccc(OC(F)F)cc2)c(=O)n(-c2ccc3nn(CC)cc3c2)c2[nH]ncc12 [Compound 19],16.6
